Results as given in PMC6151511, “Rational Design of Nucleoside–Bile Acid Conjugates Incorporating a Triazole Moiety for Anticancer Evaluation and SAR Exploration” (Molecules : A Journal of Synthetic Chemistry and Natural …, 2017).
Read-outs that look alike come from different tables or passages of the source.

Assays:
Assay type in all cases: cell-based
[1] = system: HCT116 colon carcinoma; experiment: MTT assay, cell growth inhibition of HCT116 colon carcinoma; settings: for IC50: MTT, 72 h incubation, mean of three independent experiments ± SD, IC50 > 50 means inhibition <20% at 50 μM
Experimental: (§1) All conjugated compounds prepared via click chemistry and listed in Table 1 were evaluated in vitro for their cytotoxic activity against K562 leukemia cells and the colon cancer cell line HCT116. Normal human skin fibroblast cells were chosen as a control and cisplatin served as a reference compound. The cytotoxicity was evaluated using the MTT assay (details are reported in the Materials and Methods section). In all experiments the cell growth inhibition of K562 and HCT116 was determined for each compound at concentrations of 10, 25 and 50 μM after 72 h of treatment and up to 100 μM in the case of fibroblasts.
(§2) Cell growth inhibition assays were carried out using the leukemia cell line K562 and colon carcinoma HCT116. Cell lines were obtained from ATCC (Manassas, VA, USA) and maintained in RPMI 1640, supplemented with 10% fetal bovine serum (FBS), penicillin (100 Units mL^−1), streptomycin (100 μg mL^−1) and glutamine (2 mM) (complete medium); the pH of the medium was 7.2 and the incubation was performed at 37 °C in a 5% CO2 atmosphere. Adherent cells were routinely used at 70% of confluence and passaged every 3 days by treatment with 0.05% Trypsin-EDTA (Lonza, Walkersville, MD, USA). K562 cells were routinely fed every 3 days.
(§3) The antiproliferative activity of the compounds was tested using the 3-(4,5-dimethylthiozol-2-yl)2,5-diphenyltetrazolium bromide solution (MTT) assay. K562 and HCT116 were seeded in triplicate in 96-well trays respectively at the density of 5 × 10^3 and 10^4 in 50 μL of complete medium. Stock solutions (50 mM) of each compound were made in DMSO and diluted in complete medium to give final concentrations of 50, 25 and 10 μM. Untreated cells were placed in every plate as a negative control. The cells were exposed to the compounds, in 100 μL total volume, for 72 h.

[2] = system: Normal human skin fibroblast cells; experiment: MTT assay, cytotoxicity on normal fibroblasts (control); settings: up to 100 μM; for IC50: MTT, 72 h incubation, mean of three independent experiments ± SD, IC50 > 100 means inhibition <10% at 100 μM, read-out: IC50 FIBRO
Experimental: as §1, §3

[3] = system: K562 leukemia cells; experiment: MTT assay, cell growth inhibition of K562 leukemia cells; settings: for IC50: MTT, 72 h incubation, mean of three independent experiments ± SD, IC50 > 50 means inhibition <20% at 50 μM, read-out: IC50 K562
Experimental: as §1, §2, §3

[4] = Homo sapiens, Skin fibroblast, 72 h

Question: With COC(=O)CCC(C)[C@H]1CCC2C3C(CC[C@@]21C)[C@@]1(C)CC[C@@H](n2cc(CCCCC#Cc4nc5c(=O)[nH]c(N)nc5n4[C@@H]4O[C@H](CO)[C@@H](O)[C@H]4O)nn2)CC1C[C@H]3O (stereo partly drawn) [G-CDC] as the compound, how does the IC50 ([1]; Homo sapiens, HCT-116, 72 h) read?
Answer: ≤ 25 µM

Question: And the IC50 [1]?
Answer: 25.3 ± 3.8 µM

Question: And the IC50 [2, 4]?
Answer: > 100 µM

Question: What about the IC50 ([3]; Homo sapiens, K562, 72 h) of the same compound?
Answer: > 50 µM

Question: How did the IC50 [1] turn out when N.N.[Cl][Pt][Cl] [CISPLATIN, cisplatin, reference compound] was run?
Answer: 8.5 ± 1.2 µM

Question: And the IC50 [2]?
Answer: 23.6 ± 3.5 µM

Question: And the IC50 [3]?
Answer: 5.4 ± 1 µM

Question: For COC(=O)CCC(C)[C@H]1CCC2C3C(CC[C@@]21C)[C@@]1(C)CC[C@@H](n2cc(CCCCC#Cc4cn([C@H]5C[C@H](O)[C@@H](CO)O5)c(=O)[nH]c4=O)nn2)CC1C[C@@H]3O (stereo partly drawn) [dU-UDC], which IC50 ([1]; Homo sapiens, HCT-116, 72 h) is on record?
Answer: ≤ 25 µM

Question: And the IC50 [1]?
Answer: 23.5 ± 1.6 µM

Question: And the IC50 [2, 4]?
Answer: ~100 µM

Question: And the IC50 [2]?
Answer: 91.5 ± 4.5 µM

Question: And the IC50 ([3]; Homo sapiens, K562, 72 h)?
Answer: ≤ 25 µM

Question: And the IC50 [3]?
Answer: 21.5 ± 2 µM

Question: CC(CCn1cc(CCCCC#Cc2nc3c(=O)[nH]c(N)nc3n2[C@@H]2O[C@H](CO)[C@@H](O)[C@H]2O)nn1)[C@H]1CCC2C3C(CC[C@@]21C)[C@@]1(C)CC[C@@H](O)CC1C[C@H]3O (stereo partly drawn) [G-nor-CDC] was tested. Which IC50 ([1]; Homo sapiens, HCT-116, 72 h) did it give?
Answer: > 50 µM

Question: And the IC50 [2, 4]?
Answer: > 100 µM

Question: And the IC50 ([3]; Homo sapiens, K562, 72 h)?
Answer: > 50 µM

Question: Which IC50 ([1]; Homo sapiens, HCT-116, 72 h) does the source give for CC(CCC(=O)NCCS(=O)(=O)O)C1CCC2C3C(O)CC4CC(n5cc(CCCCC#Cc6nc7c(N)ncnc7n6C6OC(CO)C(O)C6O)nn5)CCC4(C)C3CCC12C (stereo not drawn) [A-TUDCA] here?
Answer: > 50 µM

Question: What about the IC50 [2, 4] of the same compound?
Answer: > 100 µM

Question: And the IC50 ([3]; Homo sapiens, K562, 72 h)?
Answer: > 50 µM

Question: With C#CCCCCC#Cc1nc2c(=O)[nH]c(N)nc2n1[C@H]1C[C@H](O)[C@@H](CO)O1 [ALK-dG, 8-(1,7-Octadynyl)-2′-deoxyguanosine] as the compound, how does the IC50 ([1]; Homo sapiens, HCT-116, 72 h) read?
Answer: > 50 µM

Question: And the IC50 [2, 4]?
Answer: > 100 µM

Question: And the IC50 ([3]; Homo sapiens, K562, 72 h)?
Answer: > 50 µM

Question: Which results are given for CC(CCn1cc(CCCCC#Cc2nc3c(=O)[nH]c(N)nc3n2[C@H]2C[C@H](O)[C@@H](CO)O2)nn1)[C@H]1CCC2C3C(CC[C@@]21C)[C@@]1(C)CC[C@@H](O)CC1C[C@H]3O (stereo partly drawn) [dG-nor-CDC]?
Answer: IC50 ([1]; Homo sapiens, HCT-116, 72 h): > 50 µM; IC50 [2, 4]: > 100 µM; IC50 ([3]; Homo sapiens, K562, 72 h): > 50 µM

Question: Which “cytotoxicity against HCT116 (in words)” value ([1]; 10, 25 and 50 μM, 72 h) does the source give for CC(CCC(=O)NCCS(=O)(=O)O)[C@H]1CCC2C3C(CC[C@@]21C)[C@@]1(C)CC[C@@H](N=[N+]=[N-])CC1C[C@@H]3O (stereo partly drawn) [3α-N3-TUDCA, (3α-Azido-7β-hydroxy-5β-cholan-24-oyl)-2-aminoethanesulfonic Acid] here?
Answer: not be cytotoxic

Question: What about the IC50 ([1]; Homo sapiens, HCT-116, 72 h) of the same compound?
Answer: > 50 µM

Question: And the IC50 [2, 4]?
Answer: > 100 µM

Question: And the “cytotoxicity towards fibroblast cells (in words)” value ([2]; 72 h)?
Answer: not be cytotoxic

Question: And the “cytotoxicity against K562 (in words)” value ([3]; 10, 25 and 50 μM, 72 h)?
Answer: not be cytotoxic

Question: And the IC50 ([3]; Homo sapiens, K562, 72 h)?
Answer: > 50 µM

Question: Which IC50 ([1]; Homo sapiens, HCT-116, 72 h) does the source give for COC(=O)CCC(C)[C@H]1CCC2C3C(CC[C@@]21C)[C@@]1(C)CC[C@@H](n2cc(CCCCC#Cc4cn([C@H]5C[C@H](O)[C@@H](CO)O5)c(=O)[nH]c4=O)nn2)CC1C[C@H]3O (stereo partly drawn) [dU-CDC] here?
Answer: > 50 µM

Question: What about the IC50 [2, 4] of the same compound?
Answer: > 100 µM

Question: What about the IC50 ([3]; Homo sapiens, K562, 72 h) of the same compound?
Answer: > 50 µM

Question: CC(CCn1cc(CCCCC#Cc2nc3c(N)ncnc3n2C2OC(CO)C(O)C2O)nn1)C1CCC2C3C(O)CC4CC(O)CCC4(C)C3CCC12C (stereo not drawn) [A-nor-UDC] was tested. Which IC50 [1] did it give?
Answer: > 50 µM

Question: And the IC50 [2]?
Answer: > 100 µM

Question: What about the IC50 [3] of the same compound?
Answer: > 50 µM

Question: What does the source list for COC(=O)CCC(C)[C@H]1CCC2C3C(CC[C@@]21C)[C@@]1(C)CC[C@@H](n2cc(CCCCC#Cc4nc5c(=O)[nH]c(N)nc5n4[C@H]4C[C@H](O)[C@@H](CO)O4)nn2)CC1C[C@@H]3O (stereo partly drawn) [dG-UDC]?
Answer: IC50 ([1]; Homo sapiens, HCT-116, 72 h): > 50 µM; IC50 [2, 4]: > 100 µM; IC50 ([3]; Homo sapiens, K562, 72 h): > 50 µM

Question: With COC(=O)CCC(C)[C@H]1CCC2C3C(CC[C@@]21C)[C@@]1(C)CC[C@@H](n2cc(CCCCC#Cc4nc5c(=O)[nH]c(N)nc5n4[C@H]4C[C@H](O)[C@@H](CO)O4)nn2)CC1C[C@H]3O (stereo partly drawn) [dG-CDC] as the compound, how does the IC50 ([1]; Homo sapiens, HCT-116, 72 h) read?
Answer: > 50 µM

Question: And the IC50 [2, 4]?
Answer: > 100 µM

Question: And the IC50 ([3]; Homo sapiens, K562, 72 h)?
Answer: > 50 µM

Question: For CC(CCC(=O)NCCS(=O)(=O)O)[C@H]1CCC2C3C(CC[C@@]21C)[C@@]1(C)CC[C@@H](n2cc(CCCCC#Cc4cn([C@H]5C[C@H](O)[C@@H](CO)O5)c(=O)[nH]c4=O)nn2)CC1C[C@@H]3O (stereo partly drawn) [dU-TUDCA], which IC50 ([1]; Homo sapiens, HCT-116, 72 h) is on record?
Answer: > 50 µM

Question: And the IC50 [2, 4]?
Answer: > 100 µM
